Experimental data from patent publication US12178801B1, “Stable psilocin salts, esters and conjugates and uses thereof” (LOBE SCIENCES LTD., priority 2022, dated 2024).
Values joined by “and” are separate entries in the source; they are usually repeats but may differ in a detail not shown here. Identical values can stand only once. “Also recorded” adds a separate entry of the source.

Key:
healthy subjects = experiment: Phase one single-dose study of psilocin mucic acid conjugate capsules: MMSE and mood assessment by psychiatrist; conditions: single oral capsule 4.05 mg, equivalent to 2 mg psilocin
[1] = Stability studies on psilocin mucate capsule (appearance, HPLC assay and impurities, TM-022-0392); assay type: physicochemical; conditions: for Assay TM-22-0392 (% Label Claim): specification 90.0-110.0%
Procedure: Additional stability studies were performed on psilocin mucate (also known as psilocin mucic acid salt or conjugate or psilocin galactaric acid salt or conjugate) capsule.
Appearance was evaluated by viewing of the sample on a watchglass over a black and white background.
Assay conditions for Test/Method TM-022-0392 assessing stability and impurities were as follows: • Mobile phase: MPA: 945 mL water, 5 mL H3PO4 pH to 5.7 with NaOH; MPB: Acetonitrile • Diluent: 80:20 Water:MeOH • Standard: 0.4 mg/mL Psilocin Mucic RS in Diluent • Sample:0.4 mg/mL Psilocin Mucic AP in Diluent • HPLC Conditions are depicted in Table 3.
*Additional equilibration may be required System suit: RSD NMT 2.0% (5 injections), Tailing NMT 2.0, Plate count NLT 10000
Calculations were against a bracketing external standard.
Identity of psilocin mucate was verified by ultraviolet (UV) assessment, wherein the UV spectrum of the main peak in the standard matched the UV spectrum of the main peak in the sample and by retention time wherein the retention time ratio was 0.98-1.02.

[2] = psilocybin dose, equivalent to about 2 mg psilocin; cited from earlier work
[3] = psilocin from psilocybin administration; cited from earlier work

With `CN(C)CCc1c[nH]c2cccc(O)c12.O=C(O)[C@@H](O)[C@H](O)[C@H](O)[C@@H](O)C(=O)O` [psilocin mucate] as the compound, how does the “FEELING STATUS” value (healthy subjects; one statement per subject (01-10)) read?
Its value is “Less anxious, better mood, increase their appetite; also recorded: Feel little beet happier, better energy; also recorded: Feel calm, less thoughts, happier mood; also recorded: Euphoric, better mood, it helps with life stress; also recorded: Euphories, better mood, sleepy, feel time is slower; also recorded: Sleepy, better thoughts, less worried in general; also recorded: Did not feel change in mood but feeling cold; also recorded: More relaxed, want to drink sweet tea, better; also recorded: Better mood, feels hyper sexual; also recorded: Felt high mood, now they feel in good way, ,”.

And the MMSE (healthy subjects; one value per subject (01-10), scores expected below 25 with a hallucinogenic substance)?
The MMSE was 29 (2×) and 30 (3×) and 28 (3×) and 27 (2×).

And the “Time for which demonstrated to be stable” value [1]?
Its value is “at least 7 months”.

What about the “Appearance, Packaging: Labeled, amber glass bottle with white closure containing 15 partially filled white opaque capsules” value ([1]; capsule, 7 Months) of the same compound?
Its value is “Conforms”.

What about the “Appearance, Product: White to light brown powder partially filling white opaque capsules” value ([1]; capsule, 7 Months) of the same compound?
The value was “Conforms”.

And the “Total Impurities TM-22-0392” value ([1]; capsule, 7 Months)?
The value was less than 0.05%.

What about the “Impurities TM-22-0392, individual impurities” value ([1]; capsule, 7 Months, all impurities) of the same compound?
The value was “All <0.05%”.

And the “Assay TM-22-0392 (% Label Claim)” value ([1]; capsule, 7 Months)?
Its value is 101.7%.

And the “Appearance, Packaging: Labeled, amber glass bottle with white closure containing 15 partially filled white opaque capsules” value ([1]; capsule, Initial)?
Its value is “Conforms”.

And the “Appearance, Product: White to light brown powder partially filling white opaque capsules” value ([1]; capsule, Initial)?
Its value is “Conforms”.

What about the “Total Impurities TM-22-0392” value ([1]; capsule, Initial) of the same compound?
Its value is 0.08%.

And the “Assay TM-22-0392 (% Label Claim)” value ([1]; capsule, Initial)?
The value was 100.8%.

With `CN(C)CCc1c[nH]c2cccc(OP(=O)(O)O)c12` [psilocybin, Psilocybin] as the compound, how does the “Lowest dose with reported hallucinogenic effects coupled with increased anxiety” value [2] read?
Its value is 5 mg.

With `CN(C)CCc1c[nH]c2cccc(O)c12` [psilocin] as the compound, how does the Estimated dose-normalized bioavailability [3] read?
The Estimated dose-normalized bioavailability was 52.7%.
